Experimental data taken from patent publication US20240148821A1, “PHARMACEUTICAL USE OF CYCLIC PEPTIDE COMPOUND” (CHUGAI SEIYAKU KABUSHIKI KAISHA, priority 2021, published 2024).
Numbered stars: 1 amine (or outer) side, 2 acyl side, 3 side chain; on linkers, the order of the positions; unused ones are H or OH. Bridge positions count the residues as written; N and C are the ends. Square brackets hold non-standard residues; d marks the D form. Peptide text beside a SMILES is read from it. * marks the point of attachment. hPhe(3,5-F2-4-CF3) = N[C@@H](CCc1cc(F)c(C(F)(F)F)c(F)c1)C(=O)O; hPhe(3-Cl-4-CF3) = N[C@@H](CCc1ccc(C(F)(F)F)c(Cl)c1)C(=O)O; hPhe(3-F,4-CF3) = N[C@@H](CCc1ccc(C(F)(F)F)c(F)c1)C(=O)O; NEtPhe(4-CF3) = CCN[C@@H](Cc1ccc(C(F)(F)F)cc1)C(=O)O; NMePhe(3,4-F2) = CN[C@@H](Cc1ccc(F)c(F)c1)C(=O)O; 3Oxa8azabicyclo(3.2.1)octane = C1CC2COCC1N2*; NMePhe(4-Cl) = CN[C@@H](Cc1ccc(Cl)cc1)C(=O)O; NMePhe(4-Me) = CN[C@@H](Cc1ccc(C)cc1)C(=O)O; hPhe(4-Cl) = N[C@@H](CCc1ccc(Cl)cc1)C(=O)O; NMedβ3hAla = C[C@H](CC(=O)[*:2])N(C)[*:1]; hNle(7,7-F2) = N[C@@H](CCCCC(F)F)C(=O)O; NMeGly(cPent) = CN[C@H](C(=O)O)C1CCCC1; Met(O2) = CS(=O)(=O)CC[C@H](N)C(=O)O; NMeAla(cPr) = CN[C@@H](CC1CC1)C(=O)O; NMeCha = CN[C@@H](CC1CCCCC1)C(=O)O; Hyp = O=C(O)[C@@H]1C[C@@H](O)CN1; NMeAhp(2) = CCCCC[C@H](NC)C(=O)O; NMeChg = CN[C@H](C(=O)O)C1CCCCC1; NMeI = CC[C@H](C)[C@H](NC)C(=O)O; N(CH2CH2)2CF2 = FC1(F)CCN(*)CC1; NMeD = CN[C@@H](CC(=O)O)C(=O)O; NMeL = CN[C@@H](CC(C)C)C(=O)O; NMeV = CN[C@H](C(=O)O)C(C)C; d(β3hA) = C[C@@H](N)CC(=O)O; Azetidin(1-yl) = C1CN(*)C1; NMeS = CN[C@@H](CO)C(=O)O; NMeA = CN[C@@H](C)C(=O)O; NMeAib = CNC(C)(C)C(=O)O; Nle = CCCC[C@H](N)C(=O)O; Piperidide = C1CCN(*)CC1; Ac5c = NC1(C(=O)O)CCCC1; Aze = O=C(O)[C@@H]1CCN1; Ac4c = NC1(C(=O)O)CCC1; Sar = CNCC(=O)O; Propyl = CCC*

How the values were obtained:
[1] = biological target: protein-protein interaction between Kras and SOS1 (biotin-tagged human Kras loaded with GDP, His-tagged human SOS1) (Homo sapiens (Human), UniProt P01116, G12D); assay: Protein-protein interaction inhibition between Kras and SOS1 (KrasG12D-SOS PPI) using AlphaScreen; format: biochemical; details: AlphaScreen; biotin-tagged human Kras loaded with GDP, His-tagged human SOS1; read-out: KRAS G12D-SOS PPI IC50;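 note: kras produced in E. coli, Ni-coupled donor beads and streptavidin acceptor beads, excitation 680 nm with emission detected at 520–620 nm via singlet oxygen transfer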
[2] = system: Human pancreatic cancer cell line AsPC-1 (G12D mutation Kras); assay: AsPC-1 cell growth inhibition (AsPC-1 CGI); format: cell-based; details: read-out: AsPC-1 cell growth inhibition, 50% growth inhibitory concentration (IC50 value); 96 hours, CellTiter-Glo, values classified in ranges
Protocol: Test compounds were serially dilated with dimethyl sulfoxide, and 200 nL was then dispensed to a U-bottom 96-well plate using Labcyte Echo. […] The cell suspension was dispensed to a. plate containing a test compound at 100 μL per well and incubated at 37° C. in a 5% carbon dioxide gas incubator. 96 hours later, 80 μL of CellTiter-Glo (Promega) was added to each well and fluorescence was measured.

SMILES	IC50 [1]	IC50 [2]
CCO[C@@H]1C[C@H]2C(=O)NC3(CCC3)C(=O)N(C)[C@@H](C3CCCC3)C(=O)N(C)[C@H](C)CC(=O)N(C)[C@@H](CC(C)C)C(=O)N[C@@H]([C@@H](C)CC)C(=O)N(C)[C@@H](C)C(=O)N3CC[C@H]3C(=O)N(CC)[C@@H](Cc3ccc(C(F)(F)F)cc3)C(=O)N(C)CC(=O)N[C@@H](CCc3cc(F)c(C(F)(F)F)c(F)c3)C(=O)N2C1 [Compound 132] (cyclo([Ac4c][NMeGly(cPent)][NMedβ3hAla][NMeL]I[NMeA][Aze][NEtPhe(4-CF3)][Sar][hPhe(3,5-F2-4-CF3)][Hyp](Et)))	0.96 nM	≤ 20 nM
CC[C@H](C)[C@@H]1NC(=O)[C@H](CC(C)C)N(C)C(=O)C[C@@H](C(=O)N(C)C)N(C)C(=O)[C@H](C2CCCC2)N(C)C(=O)C2(CCCC2)NC(=O)[C@@H]2CCCN2C(=O)[C@H](CCc2ccc(C(F)(F)F)c(F)c2)NC(=O)CN(C)C(=O)[C@H](C2CCCC2)N(C)C(=O)[C@@H]2CCN2C(=O)[C@H](C)N(C)C1=O [Compound 134] ([NMeL]I[NMeA][Aze][NMeGly(cPent)][Sar][hPhe(3-F,4-CF3)]P[Ac5c][NMeGly(cPent)][NMeD]-NMe2; lactam N-11)	0.61 nM	≤ 20 nM
CC[C@H](C)[C@@H]1NC(=O)[C@H](CC(C)C)N(C)C(=O)C[C@@H](C(=O)N2CCCCC2)N(C)C(=O)[C@H](C(C)C)N(C)C(=O)C2(CCCC2)NC(=O)[C@@H]2CCCN2C(=O)[C@H](CCc2ccc(C(F)(F)F)c(F)c2)NC(=O)CN(C)C(=O)[C@H](CC2CCCCC2)N(C)C(=O)CN(C)C(=O)[C@@H]2CCN2C1=O [Compound 139] ([NMeL]I[Aze][Sar][NMeCha][Sar][hPhe(3-F,4-CF3)]P[Ac5c][NMeV][NMeD]-Piperidide; lactam N-11)	8.4 nM	> 500 nM
CCCCC[C@H]1C(=O)N[C@@H]([C@@H](C)CC)C(=O)N(C)[C@@H](C)C(=O)N2CC[C@H]2C(=O)N(C)[C@@H](CC2CCCCC2)C(=O)N(C)CC(=O)N[C@@H](CCc2ccc(C(F)(F)F)c(Cl)c2)C(=O)N2CCC[C@H]2C(=O)NC2(CCCC2)C(=O)N(C)[C@@H](C2CCCC2)C(=O)N(C)[C@H](C(=O)N2CCC2)CC(=O)N1C [Compound 144] ([NMeAhp(2)]I[NMeA][Aze][NMeCha][Sar][hPhe(3-Cl-4-CF3)]P[Ac5c][NMeGly(cPent)][NMeD]-{Azetidin(1-yl)}; lactam N-11)	1.1 nM	≤ 20 nM
CC(C)C[C@H]1C(=O)N[C@@H](CCCCC(F)F)C(=O)N(C)[C@@H](C)C(=O)N2CC[C@H]2C(=O)N(C)[C@@H](CC2CCCCC2)C(=O)N(C)CC(=O)N[C@@H](CCc2ccc(C(F)(F)F)c(Cl)c2)C(=O)N2CCC[C@H]2C(=O)NC2(CCCC2)C(=O)N(C)[C@@H](C(C)C)C(=O)N(C)[C@H](C(=O)N2CCCCC2)CC(=O)N1C [Compound 145] ([NMeL][hNle(7,7-F2)][NMeA][Aze][NMeCha][Sar][hPhe(3-Cl-4-CF3)]P[Ac5c][NMeV][NMeD]-Piperidide; lactam N-11)	25 nM	> 500 nM
CC[C@H](C)[C@@H]1NC(=O)[C@H](CC(C)C)N(C)C(=O)C[C@@H](C(=O)N2CCC2)N(C)C(=O)[C@H]([C@@H](C)CC)N(C)C(=O)C2(CCCC2)NC(=O)[C@@H]2CCCN2C(=O)[C@H](CCc2ccc(C(F)(F)F)c(Cl)c2)NC(=O)CN(C)C(=O)[C@H](CC2CCCCC2)N(C)C(=O)[C@@H]2CCN2C(=O)[C@H](C)N(C)C1=O [Compound 150] ([NMeL]I[NMeA][Aze][NMeCha][Sar][hPhe(3-Cl-4-CF3)]P[Ac5c][NMeI][NMeD]-{Azetidin(1-yl)}; lactam N-11)	1.3 nM	≤ 20 nM
CC[C@H](C)[C@@H]1NC(=O)[C@H](C)N(C)C(=O)C[C@@H](C)NC(=O)[C@H](C2CCCC2)N(C)C(=O)C2(CCCC2)NC(=O)[C@@H]2CCCN2C(=O)[C@H](CCc2ccc(C(F)(F)F)c(Cl)c2)NC(=O)CN(C)C(=O)[C@H](Cc2ccc(C)cc2)N(C)C(=O)[C@@H]2CCCN2C(=O)CN(C)C1=O [Compound 151] (cyclo([Ac5c][NMeGly(cPent)][d(β3hA)][NMeA]I[Sar]P[NMePhe(4-Me)][Sar][hPhe(3-Cl-4-CF3)]P))	5 nM	> 500 nM
CC[C@H](C)[C@@H]1NC(=O)[C@H](CC(C)C)N(C)C(=O)C[C@@H](C(=O)N2CCCCC2)N(C)C(=O)[C@H](C(C)C)N(C)C(=O)C2(CCCC2)NC(=O)[C@H](C)NC(=O)[C@H](CCc2ccc(C(F)(F)F)c(Cl)c2)NC(=O)CN(C)C(=O)[C@H](CC2CCCCC2)N(C)C(=O)CN(C)C(=O)CN(C)C1=O [Compound 156] ([NMeL]I[Sar][Sar][NMeCha][Sar][hPhe(3-Cl-4-CF3)]A[Ac5c][NMeV][NMeD]-Piperidide; lactam N-11)	0.98 nM	> 500 nM
CCCC[C@@H]1NC(=O)[C@H](CCc2ccc(C(F)(F)F)c(F)c2)NC(=O)CN(C)C(=O)[C@H](Cc2ccc(Cl)cc2)N(C)C(=O)CN(C)C(=O)CN(C)C(=O)[C@H]([C@@H](C)CC)NC(=O)[C@H](CC(C)C)N(C)C(=O)C[C@@H](C)N(C)C(=O)[C@H](CC(C)C)NC(=O)C(C)(C)N(C)C1=O [Compound 165] (cyclo(I[Sar][Sar][NMePhe(4-Cl)][Sar][hPhe(3-F,4-CF3)][Nle][NMeAib]L[NMedβ3hAla][NMeL]))	41 nM	> 500 nM
CC[C@H](C)[C@@H]1NC(=O)[C@H](C)N(C)C(=O)C[C@@H](C(=O)N2CCCCC2)N(C)C(=O)[C@H](C(C)C)N(C)C(=O)C2(CCCC2)NC(=O)[C@H](Cc2ccc(F)c(F)c2)N(C)C(=O)[C@H](CCc2ccc(C(F)(F)F)c(Cl)c2)NC(=O)CN(C)C(=O)[C@H](CC2CCCCC2)N(C)C(=O)CN(C)C(=O)CN(C)C1=O [Compound 171] ([NMeA]I[Sar][Sar][NMeCha][Sar][hPhe(3-Cl-4-CF3)][NMePhe(3,4-F2)][Ac5c][NMeV][NMeD]-Piperidide; lactam N-11)	14 nM	> 500 nM
CC[C@H](C)[C@@H]1NC(=O)[C@H](CC(C)C)N(C)C(=O)C[C@@H](C(=O)N2CCCCC2)N(C)C(=O)[C@H](CC2CC2)N(C)C(=O)C2(CCCC2)NC(=O)[C@@H]2CCCN2C(=O)[C@H](CCc2ccc(C(F)(F)F)c(Cl)c2)NC(=O)CN(C)C(=O)[C@H](CC2CCCCC2)N(C)C(=O)[C@@H]2CCN2C(=O)[C@H](C)N(C)C1=O [Compound 172] ([NMeL]I[NMeA][Aze][NMeCha][Sar][hPhe(3-Cl-4-CF3)]P[Ac5c][NMeAla(cPr)][NMeD]-Piperidide; lactam N-11)	4 nM	> 500 nM
CC(C)C[C@H]1C(=O)N[C@@H](CCS(C)(=O)=O)C(=O)N(C)[C@@H](C)C(=O)N2CC[C@H]2C(=O)N(C)[C@@H](CC2CCCCC2)C(=O)N(C)CC(=O)N[C@@H](CCc2ccc(C(F)(F)F)c(Cl)c2)C(=O)N2CCC[C@H]2C(=O)NC2(CCCC2)C(=O)N(C)[C@@H](C(C)C)C(=O)N(C)[C@H](C(=O)N2CCCCC2)CC(=O)N1C [Compound 174] ([NMeL][Met(O2)][NMeA][Aze][NMeCha][Sar][hPhe(3-Cl-4-CF3)]P[Ac5c][NMeV][NMeD]-Piperidide; lactam N-11)	57 nM	> 500 nM
CCCOC[C@H]1C(=O)N(C)CC(=O)N[C@@H](CCc2ccc(C(F)(F)F)c(Cl)c2)C(=O)N2CCC[C@H]2C(=O)NC2(CCCC2)C(=O)N(C)[C@@H](C2CCCC2)C(=O)N(C)[C@H](C(=O)N2C3CCC2COC3)CC(=O)N(C)[C@@H](CC(C)C)C(=O)N[C@@H]([C@@H](C)CC)C(=O)N(C)[C@@H](C)C(=O)N2CC[C@H]2C(=O)N1C [Compound 176] ([NMeL]I[NMeA][Aze][NMeS](Propyl)[Sar][hPhe(3-Cl-4-CF3)]P[Ac5c][NMeGly(cPent)][NMeD]-{3Oxa8azabicyclo(3.2.1)octane}; lactam N-11)	1.4 nM	≤ 20 nM
CC[C@H](C)[C@@H]1NC(=O)[C@H](CC(C)C)N(C)C(=O)C[C@@H](C(=O)N2CCCCC2)N(C)C(=O)[C@H](C(C)C)N(C)C(=O)C2(CCCC2)NC(=O)[C@H](CC(=O)N2CCC(F)(F)CC2)N(C)C(=O)[C@H](CCc2ccc(Cl)cc2)NC(=O)CN(C)C(=O)[C@H](CC2CCCCC2)N(C)C(=O)CN(C)C(=O)CN(C)C1=O [Compound 177] ([NMeL]I[Sar][Sar][NMeCha][Sar][hPhe(4-Cl)][NMeD](N(CH2CH2)2CF2)[Ac5c][NMeV][NMeD]-Piperidide; lactam N-11)	45 nM	> 500 nM
CC[C@H](C)[C@@H]1NC(=O)[C@H](CC(C)C)N(C)C(=O)C[C@@H](C(=O)N2CCCCC2)N(C)C(=O)[C@H](C(C)C)N(C)C(=O)C2(CCCC2)NC(=O)[C@@H]2CCCN2C(=O)[C@H](CCc2ccc(C(F)(F)F)c(Cl)c2)NC(=O)CN(C)C(=O)[C@H](CC2CC2)N(C)C(=O)[C@@H]2CCN2C(=O)[C@H](C)N(C)C1=O [Compound 195] ([NMeL]I[NMeA][Aze][NMeAla(cPr)][Sar][hPhe(3-Cl-4-CF3)]P[Ac5c][NMeV][NMeD]-Piperidide; lactam N-11)	9.5 nM	> 500 nM
CC[C@H](C)[C@@H]1NC(=O)[C@H](CC(C)C)N(C)C(=O)C[C@@H](C(=O)N2CCCCC2)N(C)C(=O)[C@H](C2CCCCC2)N(C)C(=O)C2(CCCC2)NC(=O)[C@H](CC2CC2)N(C)C(=O)[C@H](CCc2ccc(C(F)(F)F)c(Cl)c2)NC(=O)CN(C)C(=O)[C@H](CC2CCCCC2)N(C)C(=O)CN(C)C(=O)CN(C)C1=O [Compound 200] ([NMeL]I[Sar][Sar][NMeCha][Sar][hPhe(3-Cl-4-CF3)][NMeAla(cPr)][Ac5c][NMeChg][NMeD]-Piperidide; lactam N-11)	13 nM	> 500 nM
